Where “and” joins values, the source holds several entries; their conditions need not be identical. Equal entries are not always repeated. Inconclusive results and toxic doses are left out.
System: C57BL/6 mice, intracerebral ependymoblastoma, median survival T/C
Test: NCI In Vivo Anticancer Drug Screen. Data for tumor model Ependymoblastoma (intracerebral) in C57BL/6 mice
Conditions: endpoint: median survival time, higher = longer survival
Protocol: The antitumor activity of compounds was measured in mice bearing transplantable tumors. Survival or tumor size were measured and the results are expressed as the measurement made in the treated group (T) divided by the measurement made in the vehicle treated control group (C). The tumor model used in this assay is Ependymoblastoma (intracerebral) in C57BL/6 mice

[1] = dose: 1.0 mg/kg/injection, schedule: Q01DX005 (ip), vehicle: water
[2] = dose: 4.0 mg/kg/injection, schedule: Q01DX005 (ip), vehicle: Klucel (hydroxypropylcellulose) (HPC)
[3] = dose: 4.0 mg/kg/injection, schedule: Q01DX005 (ip), vehicle: saline with Tween-80
[4] = dose: 4.0 mg/kg/injection, schedule: Q01DX005 (ip), vehicle: water
[5] = dose: 8.0 mg/kg/injection, schedule: Q01DX005 (ip), vehicle: saline with Tween-80
[6] = dose: 16.0 mg/kg/injection, schedule: Q01DX005 (ip), vehicle: Klucel (hydroxypropylcellulose) (HPC)
[7] = dose: 16.0 mg/kg/injection, schedule: Q01DX005 (ip), vehicle: water
[8] = dose: 64.0 mg/kg/injection, schedule: Q01DX005 (ip), vehicle: saline with Tween-80

O=C1c2ccccc2C(=O)c2c(NCCNCCO)ccc(NCCNCCO)c21
T/C (dose: 0.5 mg/kg/injection, schedule: Q01DX005 (ip), vehicle: Klucel (hydroxypropylcellulose) (HPC)): 104 % of control and 110 % of control
T/C (dose: 0.5 mg/kg/injection, schedule: Q01DX005 (ip), vehicle: water): 91 % of control and 103 % of control
T/C (dose: 1.0 mg/kg/injection, schedule: Q01DX005 (ip), vehicle: Klucel (hydroxypropylcellulose) (HPC)): 102 % of control and 107 % of control
T/C (dose: 1.0 mg/kg/injection, schedule: Q01DX005 (ip), vehicle: saline with Tween-80): 94 % of control
T/C (dose: 1.0 mg/kg/injection, schedule: Q01DX005 (ip), vehicle: saline): 94 % of control
T/C [1]: 105 % of control
T/C (dose: 1.0 mg/kg/injection, schedule: Q04DX003 (ip), vehicle: Klucel (hydroxypropylcellulose) (HPC)): 113 % of control
T/C (dose: 1.0 mg/kg/injection, schedule: Q04DX003 (ip), vehicle: water): 103 % of control
T/C (dose: 2.0 mg/kg/injection, schedule: Q01DX005 (ip), vehicle: Klucel (hydroxypropylcellulose) (HPC)): 97 % of control and 108 % of control
T/C (dose: 2.0 mg/kg/injection, schedule: Q01DX005 (ip), vehicle: saline with Tween-80): 100 % of control
T/C (dose: 2.0 mg/kg/injection, schedule: Q01DX005 (ip), vehicle: saline): 108 % of control
T/C (dose: 2.0 mg/kg/injection, schedule: Q01DX005 (ip), vehicle: water): 94 % of control and 102 % of control
T/C (dose: 2.0 mg/kg/injection, schedule: Q04DX003 (ip), vehicle: Klucel (hydroxypropylcellulose) (HPC)): 103 % of control
T/C (dose: 2.0 mg/kg/injection, schedule: Q04DX003 (ip), vehicle: water): 110 % of control
T/C (dose: 4.0 mg/kg/injection, schedule: Q01DX001 (ip), vehicle: Klucel (hydroxypropylcellulose) (HPC)): 87 % of control
T/C (dose: 4.0 mg/kg/injection, schedule: Q01DX001 (ip), vehicle: water): 107 % of control
T/C [2]: 98 % of control and 104 % of control
T/C (dose: 4.0 mg/kg/injection, schedule: Q01DX005 (ip), vehicle: other): 105 % of control
T/C [3]: 104 % of control and 109 % of control
T/C (dose: 4.0 mg/kg/injection, schedule: Q01DX005 (ip), vehicle: saline): 100 % of control
T/C [4]: 98 % of control and 105 % of control
T/C (dose: 4.0 mg/kg/injection, schedule: Q04DX003 (ip), vehicle: Klucel (hydroxypropylcellulose) (HPC)): 104 % of control
T/C (dose: 4.0 mg/kg/injection, schedule: Q04DX003 (ip), vehicle: water): 96 % of control
T/C (dose: 8.0 mg/kg/injection, schedule: Q01DX001 (ip), vehicle: Klucel (hydroxypropylcellulose) (HPC)): 95 % of control
T/C (dose: 8.0 mg/kg/injection, schedule: Q01DX001 (ip), vehicle: water): 101 % of control
T/C (dose: 8.0 mg/kg/injection, schedule: Q01DX005 (ip), vehicle: Klucel (hydroxypropylcellulose) (HPC)): 104 % of control and 107 % of control
T/C (dose: 8.0 mg/kg/injection, schedule: Q01DX005 (ip), vehicle: other): 110 % of control
T/C [5]: 115 % of control
T/C (dose: 8.0 mg/kg/injection, schedule: Q01DX005 (ip), vehicle: water): 106 % of control and 108 % of control
T/C (dose: 8.0 mg/kg/injection, schedule: Q04DX003 (ip), vehicle: Klucel (hydroxypropylcellulose) (HPC)): 108 % of control
T/C (dose: 8.0 mg/kg/injection, schedule: Q04DX003 (ip), vehicle: water): 119 % of control
T/C (dose: 16.0 mg/kg/injection, schedule: Q01DX001 (ip), vehicle: Klucel (hydroxypropylcellulose) (HPC)): 98 % of control
T/C (dose: 16.0 mg/kg/injection, schedule: Q01DX001 (ip), vehicle: water): 107 % of control
T/C [6]: 110 % of control and 112 % of control
T/C [7]: 105 % of control
T/C (dose: 16.0 mg/kg/injection, schedule: Q04DX003 (ip), vehicle: Klucel (hydroxypropylcellulose) (HPC)): 109 % of control
T/C (dose: 16.0 mg/kg/injection, schedule: Q04DX003 (ip), vehicle: water): 114 % of control
T/C (dose: 32.0 mg/kg/injection, schedule: Q01DX001 (ip), vehicle: Klucel (hydroxypropylcellulose) (HPC)): 112 % of control
T/C (dose: 32.0 mg/kg/injection, schedule: Q01DX001 (ip), vehicle: water): 112 % of control
T/C (dose: 32.0 mg/kg/injection, schedule: Q01DX005 (ip), vehicle: Klucel (hydroxypropylcellulose) (HPC)): 93 % of control and 117 % of control
T/C (dose: 32.0 mg/kg/injection, schedule: Q04DX003 (ip), vehicle: Klucel (hydroxypropylcellulose) (HPC)): 103 % of control
T/C (dose: 32.0 mg/kg/injection, schedule: Q04DX003 (ip), vehicle: water): 109 % of control
T/C (dose: 64.0 mg/kg/injection, schedule: Q01DX001 (ip), vehicle: Klucel (hydroxypropylcellulose) (HPC)): 105 % of control
T/C (dose: 64.0 mg/kg/injection, schedule: Q01DX001 (ip), vehicle: water): 115 % of control
T/C (dose: 64.0 mg/kg/injection, schedule: Q04DX003 (ip), vehicle: Klucel (hydroxypropylcellulose) (HPC)): 99 % of control
T/C (dose: 128.0 mg/kg/injection, schedule: Q01DX001 (ip), vehicle: Klucel (hydroxypropylcellulose) (HPC)): 98 % of control
T/C (dose: 256.0 mg/kg/injection, schedule: Q01DX001 (ip), vehicle: Klucel (hydroxypropylcellulose) (HPC)): 104 % of control

C[C@@H](CN1CC(=O)NC(=O)C1)N1CC(=O)NC(=O)C1
T/C [1]: 110 % of control
T/C [2]: 103 % of control (2×) and 118 % of control
T/C [3]: 103 % of control
T/C [4]: 106 % of control
T/C [5]: 104 % of control
T/C [6]: 106 % of control and 112 % of control and 120 % of control
T/C (dose: 16.0 mg/kg/injection, schedule: Q01DX005 (ip), vehicle: saline with Tween-80): 108 % of control
T/C [7]: 111 % of control
T/C (dose: 32.0 mg/kg/injection, schedule: Q01DX005 (ip), vehicle: saline with Tween-80): 112 % of control
T/C (dose: 32.0 mg/kg/injection, schedule: Q01DX005 (ip), vehicle: saline): 108 % of control and 111 % of control
T/C (dose: 64.0 mg/kg/injection, schedule: Q01DX005 (ip), vehicle: Klucel (hydroxypropylcellulose) (HPC)): 115 % of control and 121 % of control
T/C [8]: 113 % of control
T/C (dose: 64.0 mg/kg/injection, schedule: Q01DX005 (ip), vehicle: saline): 119 % of control and 121 % of control
T/C (dose: 64.0 mg/kg/injection, schedule: Q01DX005 (ip), vehicle: water): 116 % of control
T/C (dose: 128.0 mg/kg/injection, schedule: Q01DX005 (ip), vehicle: saline): 120 % of control

CCCN(C)C(=O)N(CCCl)N=O
T/C (dose: 39.0 mg/kg/injection, schedule: Q01DX001 (ip), vehicle: other): 182 % of control
T/C (dose: 62.5 mg/kg/injection, schedule: Q01DX001 (ip), vehicle: other): 309 % of control
T/C (dose: 78.0 mg/kg/injection, schedule: Q01DX001 (ip), vehicle: other): 227 % of control
T/C (dose: 125.0 mg/kg/injection, schedule: Q01DX001 (ip), vehicle: other): 309 % of control
T/C (dose: 156.0 mg/kg/injection, schedule: Q01DX001 (ip), vehicle: other): 308 % of control

Nc1ccnc(=O)[nH]1
T/C [8]: 95 % of control
T/C (dose: 128.0 mg/kg/injection, schedule: Q01DX005 (ip), vehicle: saline with Tween-80): 90 % of control
T/C (dose: 256.0 mg/kg/injection, schedule: Q01DX005 (ip), vehicle: saline with Tween-80): 104 % of control
T/C (dose: 512.0 mg/kg/injection, schedule: Q01DX005 (ip), vehicle: saline with Tween-80): 87 % of control
T/C (dose: 1024.0 mg/kg/injection, schedule: Q01DX005 (ip), vehicle: saline with Tween-80): 107 % of control
